Test results taken from ChEMBL document CHEMBL1201862, “PubChem BioAssay data set” (2004).
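Step 1: Grow cells in 96-well plates. Step 2: Expose to compound for 48 hours at 5 concentrations. Step 3: Interpolate endpoints linearly; if unreached, use highest concentration. GI50 = concentration required for 50% inhibition of growth.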 Calls of active or inactive are those of the source. No stated cut-off is given here; in the data, active = GI50 up to about 1.1 µM and inactive = higher.

Experiments:
Assay in all cases: NCI tumour cell line growth inhibition, 48 h
HCT-116 = test system: HCT-116
T47D = test system: T47D
OVCAR-5 = test system: OVCAR-5
SN12C = test system: SN12C
NCI/ADR-RES = test system: NCI/ADR-RES
OVCAR-8 = test system: OVCAR-8
SR = test system: SR
CCRF-CEM = test system: CCRF-CEM
A498 = test system: A498
U-251 = test system: U-251
LOX IMVI = test system: LOX IMVI
MCF7 = test system: MCF7
OVCAR-3 = test system: OVCAR-3
COLO 205 = test system: COLO 205
M14 = test system: M14
OVCAR-4 = test system: OVCAR-4
HOP-92 = test system: HOP-92
PC-3 = test system: PC-3
NCI-H460 = test system: NCI-H460

| SMILES | GI50 (HCT-116) | GI50 (T47D) | GI50 (OVCAR-5) | GI50 (SN12C) | GI50 (NCI/ADR-RES) | GI50 (OVCAR-8) | GI50 (SR) | GI50 (CCRF-CEM) | GI50 (A498) | GI50 (U-251) | GI50 (LOX IMVI) | GI50 (MCF7) | GI50 (OVCAR-3) | GI50 (COLO 205) | GI50 (M14) | GI50 (OVCAR-4) | GI50 (HOP-92) | GI50 (PC-3) | GI50 (NCI-H460) |
| --- | --- | --- | --- | --- | --- | --- | --- | --- | --- | --- | --- | --- | --- | --- | --- | --- | --- | --- | --- |
| Cc1c(CCOC=O)c(=O)[nH]c2nncn12 | > 100 µM (inactive) | > 100 µM (inactive) | > 100 µM (inactive) | > 100 µM (inactive) | > 100 µM (inactive) | > 100 µM (inactive) | > 100 µM (inactive) | > 100 µM (inactive) | > 100 µM (inactive) | > 100 µM (inactive) | > 100 µM (inactive) | > 100 µM (inactive) | > 100 µM (inactive) | > 100 µM (inactive) | > 100 µM (inactive) | > 100 µM (inactive) | > 100 µM (inactive) | > 100 µM (inactive) | > 100 µM (inactive) |
| CCCCC(=O)NC1(c2cc3ccccc3s2)CCCCC1 | > 100 µM (inactive) | > 100 µM (inactive) | > 100 µM (inactive) | > 100 µM (inactive) | > 100 µM (inactive) | 80.4 µM (inactive) | > 100 µM (inactive) | 19.4 µM (inactive) | > 100 µM (inactive) | > 100 µM (inactive) | > 100 µM (inactive) | 85.9 µM (inactive) | > 100 µM (inactive) | > 100 µM (inactive) | > 100 µM (inactive) | > 100 µM (inactive) | > 100 µM (inactive) | > 100 µM (inactive) | > 100 µM (inactive) |
| CCCC(=O)Nc1cc(/C=C/C(=O)N2CC(CCl)c3c2cc([N+](=O)[O-])c2ccccc32)n(C)c1 (configuration not stated) | 11.9 µM (inactive) | > 100 µM (inactive) | > 100 µM (inactive) | > 100 µM (inactive) | 8.93 µM (inactive) | 16.5 µM (inactive) | 0.796 µM (active) | 3.84 µM (inactive) | 8.49 µM (inactive) | > 63.5 µM (inactive) | – | 13.8 µM (inactive) | > 100 µM (inactive) | > 100 µM (inactive) | > 100 µM (inactive) | > 100 µM (inactive) | > 100 µM (inactive) | 3.73 µM (inactive) | 7.57 µM (inactive) |
| CC(=O)OC1=NN=C2COC(c3ccccc3OC(C)=O)=NN2C1 | > 50 µM (inactive) | > 50 µM (inactive) | > 50 µM (inactive) | > 50 µM (inactive) | > 50 µM (inactive) | – | > 50 µM (inactive) | > 50 µM (inactive) | – | > 50 µM (inactive) | 24.1 µM (inactive) | > 50 µM (inactive) | > 50 µM (inactive) | 40.1 µM (inactive) | 16.7 µM (inactive) | > 50 µM (inactive) | > 50 µM (inactive) | 20.1 µM (inactive) | > 50 µM (inactive) |
| Cc1nn(-c2ccccc2)c2c1CC(=O)Nc1ccccc1-2 | 0.409 µM (active) | > 10 µM (inactive) | 4.82 µM (inactive) | – | 0.413 µM (active) | 2.06 µM (inactive) | 0.269 µM (active) | 0.44 µM (active) | 1.59 µM (inactive) | 0.743 µM (active) | 0.507 µM (active) | 0.372 µM (active) | 0.482 µM (active) | 0.538 µM (active) | 0.553 µM (active) | 18.5 µM (inactive) | 4.18 µM (inactive) | 0.679 µM (active) | 0.521 µM (active) |
| C=C1CC2C[C@H](OS(=O)(=O)c3ccc(C)cc3)C(C1)N2C (some centres not stated) | > 100 µM (inactive) | > 100 µM (inactive) | – | > 100 µM (inactive) | > 100 µM (inactive) | > 100 µM (inactive) | > 100 µM (inactive) | > 100 µM (inactive) | – | > 100 µM (inactive) | > 100 µM (inactive) | > 100 µM (inactive) | > 100 µM (inactive) | > 100 µM (inactive) | > 100 µM (inactive) | > 100 µM (inactive) | – | > 100 µM (inactive) | > 100 µM (inactive) |
| CCOC(=O)C(C#N)C1=CC(=O)C(=O)c2ccc(OC)cc21 (configuration not stated) | 20.7 µM (inactive) | 14.9 µM (inactive) | 20.1 µM (inactive) | 18.6 µM (inactive) | 20.1 µM (inactive) | 20 µM (inactive) | 57.1 µM (inactive) | 43.3 µM (inactive) | 21.8 µM (inactive) | 29.2 µM (inactive) | 21.1 µM (inactive) | 16.1 µM (inactive) | 17.9 µM (inactive) | 17 µM (inactive) | 15.6 µM (inactive) | 19 µM (inactive) | – | 28.5 µM (inactive) | 24.2 µM (inactive) |
| CC1(C)OC2COC(c3n[nH]c4c(=O)[nH]c(=O)[nH]c34)C2O1 (configuration not stated) | > 100 µM (inactive) | > 100 µM (inactive) | > 100 µM (inactive) | > 100 µM (inactive) | > 100 µM (inactive) | > 100 µM (inactive) | > 100 µM (inactive) | – | > 100 µM (inactive) | > 100 µM (inactive) | > 100 µM (inactive) | > 100 µM (inactive) | > 100 µM (inactive) | > 100 µM (inactive) | > 100 µM (inactive) | > 100 µM (inactive) | 74 µM (inactive) | > 100 µM (inactive) | > 100 µM (inactive) |
| CC(C)(C)C(=O)CC1=Nc2ccccc2SC1(O)CC(=O)C(C)(C)C (configuration not stated) | 24 µM (inactive) | 19.7 µM (inactive) | 19.8 µM (inactive) | 21 µM (inactive) | 21.9 µM (inactive) | 21.9 µM (inactive) | 11.8 µM (inactive) | 8.49 µM (inactive) | > 100 µM (inactive) | 22.2 µM (inactive) | 17.1 µM (inactive) | 25 µM (inactive) | 17 µM (inactive) | 16.3 µM (inactive) | 29.8 µM (inactive) | – | – | 22.5 µM (inactive) | 13.5 µM (inactive) |
| Cc1ncc([N+](=O)[O-])n1CCNC(=O)CCCCn1ccnc1[N+](=O)[O-] | > 100 µM (inactive) | > 100 µM (inactive) | > 100 µM (inactive) | > 100 µM (inactive) | > 100 µM (inactive) | > 100 µM (inactive) | > 100 µM (inactive) | > 100 µM (inactive) | > 100 µM (inactive) | > 100 µM (inactive) | – | > 100 µM (inactive) | > 100 µM (inactive) | 36.3 µM (inactive) | > 100 µM (inactive) | – | – | > 100 µM (inactive) | > 100 µM (inactive) |
| NC(=O)c1ncn(C2CCC(CP(=O)(O)O)C2)c1N (configuration not stated) | > 100 µM (inactive) | > 100 µM (inactive) | > 100 µM (inactive) | > 100 µM (inactive) | > 100 µM (inactive) | > 100 µM (inactive) | > 100 µM (inactive) | – | – | > 100 µM (inactive) | > 100 µM (inactive) | > 100 µM (inactive) | > 100 µM (inactive) | > 100 µM (inactive) | > 100 µM (inactive) | > 100 µM (inactive) | > 100 µM (inactive) | > 100 µM (inactive) | > 100 µM (inactive) |
| O=C1CC(c2ccccc2)C2(C(=O)NC(=S)NC2=O)C(c2ccccc2)C1 (configuration not stated) | > 75 µM (inactive) | > 75 µM (inactive) | > 75 µM (inactive) | > 75 µM (inactive) | > 75 µM (inactive) | > 75 µM (inactive) | 71 µM (inactive) | > 75 µM (inactive) | – | > 75 µM (inactive) | > 75 µM (inactive) | > 75 µM (inactive) | > 75 µM (inactive) | > 75 µM (inactive) | > 75 µM (inactive) | > 75 µM (inactive) | 13.3 µM (inactive) | > 75 µM (inactive) | > 75 µM (inactive) |
| COC(=O)c1cc2c3c(c(C(C)=O)c(OC)c2[nH]1)NCC3 | > 50 µM (inactive) | > 50 µM (inactive) | > 50 µM (inactive) | > 50 µM (inactive) | > 50 µM (inactive) | > 50 µM (inactive) | > 50 µM (inactive) | > 50 µM (inactive) | > 50 µM (inactive) | > 50 µM (inactive) | > 50 µM (inactive) | > 50 µM (inactive) | > 50 µM (inactive) | > 50 µM (inactive) | > 50 µM (inactive) | – | – | > 50 µM (inactive) | > 50 µM (inactive) |
| O=[N+]([O-])C1(C2([N+](=O)[O-])CCCC2)CCCC1 | > 100 µM (inactive) | > 100 µM (inactive) | > 100 µM (inactive) | > 100 µM (inactive) | > 100 µM (inactive) | > 100 µM (inactive) | > 100 µM (inactive) | > 100 µM (inactive) | > 100 µM (inactive) | > 100 µM (inactive) | > 100 µM (inactive) | > 100 µM (inactive) | > 100 µM (inactive) | > 100 µM (inactive) | > 100 µM (inactive) | > 100 µM (inactive) | – | > 100 µM (inactive) | > 100 µM (inactive) |
| CN(C)N1C(=O)SCC(c2ccccc2)(c2ccccc2)C1=O | > 100 µM (inactive) | > 100 µM (inactive) | > 100 µM (inactive) | > 100 µM (inactive) | > 100 µM (inactive) | > 100 µM (inactive) | > 100 µM (inactive) | > 100 µM (inactive) | > 100 µM (inactive) | > 100 µM (inactive) | > 100 µM (inactive) | 54.8 µM (inactive) | > 100 µM (inactive) | > 100 µM (inactive) | > 100 µM (inactive) | – | > 100 µM (inactive) | > 100 µM (inactive) | > 100 µM (inactive) |
| O=C(Nc1ccc2nc(O)n[n+]([O-])c2c1)C(F)(F)F | > 100 µM (inactive) | > 100 µM (inactive) | > 100 µM (inactive) | > 100 µM (inactive) | > 100 µM (inactive) | > 100 µM (inactive) | > 100 µM (inactive) | > 100 µM (inactive) | > 100 µM (inactive) | > 100 µM (inactive) | > 100 µM (inactive) | > 100 µM (inactive) | > 100 µM (inactive) | > 100 µM (inactive) | > 100 µM (inactive) | > 100 µM (inactive) | – | > 100 µM (inactive) | > 100 µM (inactive) |
